According to paper PMC7943729, “Cell-Free DNA Promotes Thrombin Autolysis and Generation of Thrombin-Derived C-Terminal Fragments” (Frontiers in Immunology, 2021):

Key:
human thrombin [1] = molecular target: T1, human thrombin (Homo sapiens, UniProt P00734); test: Thrombin autolysis determination by western blot; assay type: biochemical
T1 construct: purchased Innovative Research USA
Experimental: 10 µl of citrate plasma was added to increasing concentration of DNA (6.25, 12.5, 25, and 50 µg/ml) resuspended in 10 mM Tris, pH 7.4 (total volume of 20 µl). Following an hour pre-incubation at 37 °C, 2.5 mM CaCl2 was added to samples and further incubated for 1 hour at 37 °C. After incubation, samples were boiled for 15 min with sample buffer and were analyzed by SDS-PAGE using Novex 10–20% Tris Tricine precast gels. Post electrophoresis, the gel was transferred to a PVDF membrane and blocked with 5% milk for an hour before western blotting. For detection of C-terminal thrombin fragments, overnight incubation of the blots was performed with polyclonal antibodies recognizing the thrombin C-terminal peptide VFR17 ([…]) in 1:5,000 dilution at 4 °C. […]
DNA dependent thrombin autolysis was analyzed by incubating 0.4 µg of human thrombin (Innovative Research USA) in the presence or absence of equal weight ratio (1:1) of DNA in a total volume of 10 µl for different time points (1, 2, 4, and 6 h). […] Thrombin autolysis inhibition was analyzed using 0.4 µg of heat inactivated thrombin (preboiled for 10 mins at 95 °C) incubated with equal weight ratio (1:1) of DNA for extended time of 6 h. […] In all cases, after the incubation at 37 °C, samples were boiled for 10 min in sample buffer and analyzed by western blotting as mentioned above.

genomic DNA = test: DNA gel shift assay (agarose gel mobility shift); assay type: binding, human; details: 200 ng gDNA (20 µg/ml), 10-200 ng protein or peptide, 10 mM Tris pH 7.4, 1 h 37 °C, 0.8% agarose gel, SYBR Safe; n = 3
Experimental: The DNA used for agarose gel and western blot analysis was extracted from cultured human keratinocytes (HaCaT) cells using E.Z.N.A. DNA/RNA Isolation kit (Omega Bio-Tek USA) or E. coli DH5α plasmid DNA (pUC19) using Qiagen plasmid purification kits (Qiagen USA) according to the manufacturer’s protocol.
Following this, the samples were analyzed by gel electrophoresis on a 0.8% agarose (w/v) gel in 1X Tris acetate-EDTA (TAE) buffer with SYBR Safe and visualized with the ChemiDoc Imaging System (Bio-Rad, USA).

[2] = molecular target: T2, human neutrophil elastase (Homo sapiens, UniProt P08246); test: Protease protection assay; assay type: in vitro ADME; details: NE 1:30, 37 °C, western blot
T2 sequence (P08246 30-267): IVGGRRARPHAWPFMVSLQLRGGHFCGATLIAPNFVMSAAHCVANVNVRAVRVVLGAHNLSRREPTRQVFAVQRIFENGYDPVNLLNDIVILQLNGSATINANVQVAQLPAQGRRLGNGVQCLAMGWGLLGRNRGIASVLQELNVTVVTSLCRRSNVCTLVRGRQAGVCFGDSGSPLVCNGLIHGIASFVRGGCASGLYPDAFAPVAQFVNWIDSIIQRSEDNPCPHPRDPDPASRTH
Experimental: Thrombin or GKY25 (0.4 µg) was incubated with DNA (w/w ratio = 1:1) in 10 mM Tris, pH 7.4 for 4 h, followed by addition of neutrophil elastase at enzyme: substrate ratio of 1:30 and incubated for various time points (1, 2, and 3 h). Post incubation, samples were boiled for 3 min to inhibit the reaction and further analyzed by Tricine SDS-PAGE as described above.

human thrombin [3] = molecular target: T1, human thrombin; details: thrombin autolysis without DNA; cited from earlier work
Text: Previous studies have shown that the rate of autolysis increases with concentration of thrombin, pH, temperature and concentration of monovalent cations ([31], [32]).

With `O=S(=O)(F)Cc1ccccc1` [PMSF] the “inhibition of DNA-induced TCP formation” value (human thrombin [1]; 0.4 µg thrombin, DNA 1:1 w/w, 4 h 37 °C, PMSF 1 mM, protease inhibitor cocktail 1X) was “abrogated the formation of TCPs”.

With heparin the “induction of thrombin fragmentation / TCP formation” value (human thrombin [1]; 0.4 µg human thrombin, 37 °C, western blot with anti-VFR17, DNA 1:1 for 1-6 h, NETs 4 h, heparin 1:0.5 and 1:1 for 1 h) was “did not induce thrombin fragmentation or TCP formation”.

In the case of thrombin, the “amount giving complete retardation of DNA” value (genomic DNA) is reported as no less than 160 ng, the “amount giving reduced DNA migration” value (genomic DNA) is reported as 40 ng and the “thrombin fragments after neutrophil elastase in the presence of DNA” value ([2]; 0.4 µg thrombin with gDNA 1:1 w/w, increasing incubation time 60-180 min) is reported as “a higher signal intensity of the 3 kDa TCP”. For the same compound, the “cleavage of thrombin by neutrophil elastase without DNA” value ([2]; 0.4 µg thrombin, control lanes without DNA, 60-180 min) was “cleaved thrombin to release multiple TCPs” and the “time for complete autolytic conversion to γ-thrombin” value (human thrombin [3]) was roughly 144 h.
